Measured values from patent publication US20060019335A1, “Compositions and methods to promote c-IAP autodegradation” (priority 2004, published 2006).
Residues, ends and D or L forms follow the SMILES beside them. *: point of attachment. Cbz = O=C(OCc1ccccc1)*

Assays:
[1] = test system: c-IAP1; experiment: Co-transfection of HeLa cells with c-IAP1 and Smac plasmids, Western blot; type: cell-based, human; conditions: MG132 added to the culture medium
Procedure: (§1) Transfection of cultured Cells—HeLa cells were grown in DMEM supplemented with 10% fetal bovine serum. Cells were seeded onto 6-well plates the day before transfection and transfected at 70% confluence by using Lipofectin combined with Plus reagent (Invitrogen) according to the manufacture's protocols. The IAP expression plasmids (3 μg each for c-IAP1, c-IAP2 and XIAP, and 250 ng each for Livin αand Livin β) together with 2.5 μg of Smac expression plasmids or pcDNA3.1(−) blank plasmid were used for single-well transfection in the absence of antibiotics. The cells were harvested 12 hours after the transfection and lysed with 0.5% CHAPS in 20 mM HEPES (pH 7.4), 10 mM KCl, 1 mM MgCl2 and 1 mM DTT. The lysates were centrifuged and the protein concentrations of the supernatants were quantified by the modified Bradford method (36).
(§2) Western Blot analysis—Proteins were resolved by SDS-PAGE and transferred to nitrocellulose filters. The filters were blocked with 5% milk and probed with antibodies as indicated. The signals were visualized with the enhanced chemiluminescence method.
(§3) To investigate the effect of Smac polypeptide on IAP protein levels, HeLa cells were transfected with the expression vectors for Smac and various IAPs. Briefly, HeLa cells were either transfected with IAP alone (Lane 2, 4 and 6), or together with Smac polypeptide (Lane 3, 5 and 7), or with Smac polypeptide alone (Lane 1). Equal amounts of cell lysates (7 μg) were immunoblotted with either the HRP-conjugated anti-FLAG antibody (shown in the top panel) in order to detect N-terminal 3×FLAG tagged IAPs, or with the anti-c-Myc antibody (bottom panel) to detect C-terminal c-Myc tagged Smac. The ubiquitin fusion technique was used to secure the production of mature Smac protein with the expected N-terminal AVPI motif (6, 37).
(§4) Because it is known that the His^588 residue in the RING finger domain is important for the IAP E3 activity (22), this residue was mutated to test whether Smac stimulated the ubiquitylation-mediated degradation of both c-IAP1 and c-IAP2. In each case, His^588 in c-IAP1 and His^574 in c-IAP2 was mutated to Ala (H588A mutant and H574A mutant, respectively) and the results are depicted in FIGS. 2A and 2B. The c-IAP1 WT or H588A mutant plasmids together with either Smac WT or Smac ΔA mutant, or with pcDNA3.1 (−) blank plasmid were co-transfected into HeLa cells (FIG. 2A). The c-IAP2 WT or H574A mutant plasmids together with either Smac WT or Smac ΔA mutant, or with pcDNA3.1 (−) blank plasmid were co-transfected into HeLa cells (FIG. 2B). As controls, HeLa cells were also transfected with either Smac WT or ΔA plasmids together with the blank p3×FLAG-CMV-7 plasmid. The transfected cells were cultivated either in the absence (see lanes 1-7 of FIGS. 2A and 2B) or in the presence (see lanes 8-14 of FIGS. 2A and 2B) of MG132. Equal amounts of soluble proteins (7 μg) from the transfected cells were immunoblotted with either the HRP-conjugated anti-FLAG antibody (see top panel of FIGS. 2A and 2B) to detect N-terminal 3×FLAG tagged IAPs, or with the anti-c-Myc antibody (see middle panel of FIGS. 2A and 2B) to detect C-terminal c-Myc tagged Smac. The anti-Actin immunoblotting results were to show equal protein loading (see bottom panel of FIGS. 2A and 2B).

[2] = biological target: XIAP (Homo sapiens, UniProt P98170); experiment: Co-transfection of HeLa cells with XIAP and Smac plasmids, Western blot; type: cell-based; design: expressed in transfected cells; host or cells: HeLa; conditions: presence of MG132
Chain of XIAP (P98170 whole entry): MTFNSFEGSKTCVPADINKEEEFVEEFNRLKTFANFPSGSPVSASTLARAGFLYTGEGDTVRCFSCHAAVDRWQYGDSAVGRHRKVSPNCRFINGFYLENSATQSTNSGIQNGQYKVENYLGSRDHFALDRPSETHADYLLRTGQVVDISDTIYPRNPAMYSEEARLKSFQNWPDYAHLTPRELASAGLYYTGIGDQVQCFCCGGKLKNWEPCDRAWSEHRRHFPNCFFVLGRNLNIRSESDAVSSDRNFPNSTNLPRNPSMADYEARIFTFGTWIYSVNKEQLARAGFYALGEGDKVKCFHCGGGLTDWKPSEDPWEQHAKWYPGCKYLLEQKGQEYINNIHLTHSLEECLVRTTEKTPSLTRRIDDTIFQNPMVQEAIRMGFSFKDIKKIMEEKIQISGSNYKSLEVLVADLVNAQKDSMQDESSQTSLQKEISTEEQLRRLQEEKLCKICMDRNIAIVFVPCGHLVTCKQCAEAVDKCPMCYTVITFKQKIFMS
Procedure: as §1, §2, §3
It is known that XIAP is ubiquitylated by its own E3 activity when expressed in HEK 293T cells and that this auto-ubiquitylation and subsequent degradation is stimulated by Reaper (26). In the current study, XIAP transiently expressed in HeLa cells was ubiquitylated as well; however, mono-ubiquitylation rather than poly-ubiquitylation of XIAP was the major product (see FIG. 3A). Briefly, XIAP WT or H467A mutant plasmids together with either Smac WT or ΔA, or with pcDNA3.1(−) blank plasmid, were co-transfected into the HeLa cells. As controls, HeLa cells were also transfected with either Smac WT or ΔA plasmids together with the blank p3×FLAG-CMV-7 plasmid. The transfected cells were cultivated either in the absence (see lanes 1-7 of FIG. 3A) or in the presence (see lanes 8-14 of FIG. 3A) of MG132. Equal amounts of soluble proteins (7 μg) from the transfected cells were immunoblotted with either the HRP-conjugated anti-FLAG antibody (see top panel of FIG. 3A) to detect N-terminal 3×FLAG tagged IAPs, or with the anti-c-Myc antibody (see middle panel of FIG. 3A) to detect Smac. The anti-Actin immunoblotting results were to show equal protein loading (see bottom panel of FIG. 3A).

[3] = biological target: T1, c-IAP2 (Homo sapiens, UniProt Q13489); experiment: Co-transfection of HeLa cells with c-IAP2 and Smac plasmids, Western blot; type: cell-based; conditions: MG132 added
T1 construct: produced not only the expected full length c-IAP1 or c-IAP2; expressed in transfected cells; host or cells: HeLa
T1 sequence (Q13489 whole entry): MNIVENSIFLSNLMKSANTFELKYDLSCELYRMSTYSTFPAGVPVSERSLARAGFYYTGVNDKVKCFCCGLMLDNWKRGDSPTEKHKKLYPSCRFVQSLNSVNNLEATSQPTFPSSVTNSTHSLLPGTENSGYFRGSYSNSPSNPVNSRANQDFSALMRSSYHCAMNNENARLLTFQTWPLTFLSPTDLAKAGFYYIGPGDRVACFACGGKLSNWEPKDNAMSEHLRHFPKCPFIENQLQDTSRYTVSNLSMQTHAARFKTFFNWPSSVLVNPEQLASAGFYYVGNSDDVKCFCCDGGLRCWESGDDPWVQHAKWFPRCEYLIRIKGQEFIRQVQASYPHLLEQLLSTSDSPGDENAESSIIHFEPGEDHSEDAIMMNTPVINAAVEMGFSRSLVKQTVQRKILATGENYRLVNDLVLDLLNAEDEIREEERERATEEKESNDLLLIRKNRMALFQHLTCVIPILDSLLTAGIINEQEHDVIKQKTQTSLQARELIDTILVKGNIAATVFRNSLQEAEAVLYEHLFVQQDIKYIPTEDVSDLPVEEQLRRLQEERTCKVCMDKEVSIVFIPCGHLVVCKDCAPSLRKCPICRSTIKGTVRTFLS
Procedure: as §1, §2, §3, §4

[4] = test system: c-IAP1; experiment: In vitro ubiquitylation assay of purified c-IAP1 and BIR deletion mutants; type: biochemical, human
Procedure: In vitro ubiquitylation assays—In vitro ubiquitylation assays were carried out as previously described (29). IAP proteins (200 nM) were incubated with or without Smac polypeptide for 2 hours at 30° C. in a reaction system containing 50 mM Tris-HCl (pH 7.5), 50 mM NaCl, 2 mM Mg-ATP, 20 μM mammalian ubiquitin, 100 nM rabbit ubiquitin-activating enzyme (E1) and 400 nM of recombinant human ubiquitin-conjugating enzymes (E2). The reactions were stopped by adding equal volumes of 2×SDS sample loading buffer followed by Western Blot analysis.
To determine whether Smac promotes auto-ubiquitylation of XIAP, purified XIAP (without tag) was incubated for 2 hours at 30° C. either with or without different concentrations of Smac or with Smac ΔA in the reconstituted ubiquitylation reaction system (Ub Mix) consisting of 50 mM Tris-HCl (pH 7.5), 50 mM NaCl, 2 mM Mg-ATP, 20 μM mammalian ubiquitin, 100 nM rabbit ubiquitin-activating enzyme (E1) and 400 nM UbCH6 (E2). The reactions were stopped by adding equal volumes of 2×SDS sample loading buffer and the products were subjected to SDS-PAGE followed by immunoblotting with anti-XIAP antibody. The purified XIAP was active in directing poly-ubiquitylation. But the auto-ubiquitylation of XIAP was not enhanced by Smac.
Smac ΔA and the peptide Smac-7M were used as negative controls. The reactions were stopped by adding equal volumes of 2×SDS sample loading buffer and the products were subjected to SDS-PAGE followed by immunoblotting with anti-c-IAP1 antibody. The arrows indicate the unmodified full length or deleted c-IAP1.
To verify this, stepwise deletion was performed of the first BIR (ΔBIR1, residues 1-161), the first two BIRs (ΔBIR1-2, residues 1-265), or all the three BIR domains (ΔBIR1-2-3, residues 1-339) from c-IAP1. All these mutants and the full-length wild type c-IAP1 were purified as a non-tagged form by using the pTYB11 Intein system (New England Biolabs).
Target sequence in this assay (Q13490 162-618): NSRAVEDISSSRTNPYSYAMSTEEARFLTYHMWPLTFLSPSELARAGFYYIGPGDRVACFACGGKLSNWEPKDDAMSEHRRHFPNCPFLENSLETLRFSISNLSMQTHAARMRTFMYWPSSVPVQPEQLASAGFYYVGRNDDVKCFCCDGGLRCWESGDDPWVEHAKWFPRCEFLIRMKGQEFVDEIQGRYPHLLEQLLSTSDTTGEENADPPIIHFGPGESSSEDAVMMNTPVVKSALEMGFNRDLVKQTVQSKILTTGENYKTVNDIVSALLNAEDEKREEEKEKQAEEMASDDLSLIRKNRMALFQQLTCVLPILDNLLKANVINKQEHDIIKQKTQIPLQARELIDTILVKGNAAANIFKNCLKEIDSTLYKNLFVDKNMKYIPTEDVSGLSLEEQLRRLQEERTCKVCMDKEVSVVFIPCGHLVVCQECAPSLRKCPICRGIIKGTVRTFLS

Compound | H588A c-IAP1 protein level [1] | amount of wild type c-IAP1 [1] | poly-ubiquitylated XIAP products [2] | level of c-IAP2 [3] | stimulation of E3 activity of c-IAP compared with full length Smac ([4]; as illustrated in the Examples) | E3 activity of c-IAP1ΔBIR1 ([4]; peptides and controls, FIG. 7B)
CC(C)C[C@@H](C=O)NC(=O)[C@H](CC(C)C)NC(=O)[C@H](CC(C)C)NC(=O)OCc1ccccc1 [MG132, reference compound] (Cbz-Leu-Leu-Leu-aldehyde) | did not cause a significant increase | dramatically increased | more poly-ubiquitylated XIAP products could be detected | did not show such a significant change |  | 
AVPIAQ (listed as Homo sapiens) [Smac-6] |  |  |  |  | as effectively as the full length Smac polypeptide | effectively stimulated E3 activity
